Where two headings read alike, the source gives them in different places.
Tested on: 60 cancer cell lines (NCI 60 cancer cell line series)
Assay: NCI-DTP in vitro cancer screen, sulforhodamine B (SRB) growth inhibition, 48 hour exposure
Format: cell-based, human
Procedure: Cancer Cell Line Preparation. Sixty cancer cell lines were obtained from the National Cancer Institute Developmental Therapeutics Program (NCI-DTP). Procedures for growing cells and testing compounds have been described previously (Scudiero et al., Cancer Res. 1988, 48:4827-4833; Stinson et al., Anticancer Res.; Myers et al., Electrophoresis 1997, 18:647-653). Cells are plated on day 0 at a density individualized for each cell line so that they will generally be sub-confluent at the end of the assay period. On day 1, a compound is added in the format for a duplicate-well, 5-dose, ten-fold interval dose response study.
No-drug, no-cell and no-growth controls are included. On day 3 the cells are processed for staining with sulforhodamine B (SRB), which reflects the amount of cell mass present at the end of a 48 hour exposure to the test agent. From dose response curves based on the SRB data, various parameters can be determined. […] More precisely, the quantity used in the calculation to be described is the potency measure −log{GI50}.
Activity database (A). […] This subset of compounds was selected from the larger 23,000 compound database available from the DTP. The compounds were selected on the basis of their known mechanism of action and chemical structure. The average potency −log{GI50} was extracted from the comma-delimited text files available through the Web at http://www.nci.nih.gov/intra/lmp/jnwbio.html. Subsequently, these −log{GI50} values were inspected manually and classified as indicating either Low, Medium or High sensitivity to each compound.

**Q.** What does the source list for `N[C@@H](Cc1ccc(N(CCCl)CCCl)cc1)C(=O)O` [Melphalan]?
**A.** classification of cell line as Low(1), Medium(2), High(3) sensitivity to compound: 2; classification of cell line as Low(1), Medium(2), High(3) sensitivity to compound (Breast BT-549 CL5013): 2; classification of cell line as Low(1), Medium(2), High(3) sensitivity to compound (Breast HS-578T CL5006): 2; classification of cell line as Low(1), Medium(2), High(3) sensitivity to compound (Breast MCF7(I) CL5001): 3; classification of cell line as Low(1), Medium(2), High(3) sensitivity to compound (Breast MCF7/ADRr CL5002): 2; classification of cell line as Low(1), Medium(2), High(3) sensitivity to compound (Breast MDA-MB-231 CL5005): 2; classification of cell line as Low(1), Medium(2), High(3) sensitivity to compound (Breast MDA-MB-435 CL5011): 2; classification of cell line as Low(1), Medium(2), High(3) sensitivity to compound (Breast MDA-N CL5012): 2; classification of cell line as Low(1), Medium(2), High(3) sensitivity to compound (Breast T-47D CL5014): 2; classification of cell line as Low(1), Medium(2), High(3) sensitivity to compound (Colon COLO-250 CL4010): 2; classification of cell line as Low(1), Medium(2), High(3) sensitivity to compound (Colon HCC-2998 CL4002): 2; classification of cell line as Low(1), Medium(2), High(3) sensitivity to compound (Colon HCT-15 CL4015): 2; classification of cell line as Low(1), Medium(2), High(3) sensitivity to compound (Colon HCT-116 CL4003): 2; classification of cell line as Low(1), Medium(2), High(3) sensitivity to compound (Colon HT29(I) CL4001): 1; classification of cell line as Low(1), Medium(2), High(3) sensitivity to compound (Colon KM12 CL4017): 1; classification of cell line as Low(1), Medium(2), High(3) sensitivity to compound (Colon SW-620 CL4009): 2; classification of cell line as Low(1), Medium(2), High(3) sensitivity to compound (Leukemia CCRF-CEM(I) CL7003): 3; classification of cell line as Low(1), Medium(2), High(3) sensitivity to compound (Leukemia HL-60(I) CL7008): 3; classification of cell line as Low(1), Medium(2), High(3) sensitivity to compound (Leukemia K562(I) CL7005): 2; classification of cell line as Low(1), Medium(2), High(3) sensitivity to compound (Leukemia MOLT-4 CL7006): 3; classification of cell line as Low(1), Medium(2), High(3) sensitivity to compound (Leukemia RPMI-8226(I) CL7010): 2; classification of cell line as Low(1), Medium(2), High(3) sensitivity to compound (Leukemia SR CL7019): 3; classification of cell line as Low(1), Medium(2), High(3) sensitivity to compound (Melanoma LOX IMVI CL10001): 2; classification of cell line as Low(1), Medium(2), High(3) sensitivity to compound (Melanoma M14 CL10014): 2; classification of cell line as Low(1), Medium(2), High(3) sensitivity to compound (Melanoma MALME-3M CL10002): 2; classification of cell line as Low(1), Medium(2), High(3) sensitivity to compound (Melanoma SK-MEL-2 CL10005): 2; classification of cell line as Low(1), Medium(2), High(3) sensitivity to compound (Melanoma SK-MEL-5 CL10007): 2; classification of cell line as Low(1), Medium(2), High(3) sensitivity to compound (Melanoma SK-MEL-28 CL10008): 2; classification of cell line as Low(1), Medium(2), High(3) sensitivity to compound (Melanoma UACC-62 CL10020): 3; classification of cell line as Low(1), Medium(2), High(3) sensitivity to compound (Melanoma UACC-257 CL10021): 2; classification of cell line as Low(1), Medium(2), High(3) sensitivity to compound (NSCLC A549/ATCC CL1004): 2; classification of cell line as Low(1), Medium(2), High(3) sensitivity to compound (NSCLC EKVX CL1008): 2; classification of cell line as Low(1), Medium(2), High(3) sensitivity to compound (NSCLC HOP-62 CL1026): 2; classification of cell line as Low(1), Medium(2), High(3) sensitivity to compound (NSCLC HOP-92 CL1029): 2; sensitivity classification Low(1)/Medium(2)/High(3) (NSCLC NCI-H23(I) CL1001): 2; classification of cell line as Low(1), Medium(2), High(3) sensitivity to compound (NSCLC NCI-H226 CL1013): 2; sensitivity classification Low(1)/Medium(2)/High(3) (NSCLC NCI-H332M CL1017): 1; sensitivity classification Low(1)/Medium(2)/High(3) (NSCLC NCI-H460 CL1021): 3; sensitivity classification Low(1)/Medium(2)/High(3) (NSCLC NCI-H522 CL1003): 2; sensitivity classification Low(1)/Medium(2)/High(3) (Ovarian IGROV1 CL6010): 2; sensitivity classification Low(1)/Medium(2)/High(3) (Ovarian OVCAR-3 CL6001): 2; sensitivity classification Low(1)/Medium(2)/High(3) (Ovarian OVCAR-4 CL6002): 2; sensitivity classification Low(1)/Medium(2)/High(3) (Ovarian OVCAR-5 CL6003): 2; sensitivity classification Low(1)/Medium(2)/High(3) (Ovarian OVCAR-8 CL6005): 2; sensitivity classification Low(1)/Medium(2)/High(3) (Ovarian SK-OV-3 CL6011): 2; sensitivity classification Low(1)/Medium(2)/High(3) (Prostate DU-145 CL11003): 2; sensitivity classification Low(1)/Medium(2)/High(3) (Prostate PC-3(I) CL11001): 2; sensitivity classification Low(1)/Medium(2)/High(3) (Renal 786-0 CL9018): 2; sensitivity classification Low(1)/Medium(2)/High(3) (Renal A498 CL9013): 1; sensitivity classification Low(1)/Medium(2)/High(3) (Renal ACHN CL9023): 3; sensitivity classification Low(1)/Medium(2)/High(3) (Renal CAKI-1 CL9015): 3; sensitivity classification Low(1)/Medium(2)/High(3) (Renal RXF-393 CL9016): 2; sensitivity classification Low(1)/Medium(2)/High(3) (Renal SN12C CL9008): 2; sensitivity classification Low(1)/Medium(2)/High(3) (Renal TK10 CL9024): 1; sensitivity classification Low(1)/Medium(2)/High(3) (Renal UO-31 CL9004): 2

— US20030129629A1, “Methods and compositions for the identification, assessment, prevention, and therapy of human cancers” (Millennium Pharmaceuticals, Inc., priority 2000, published 2003)
